The values below come from publication PMC6470523, “Introduction of Nonacidic Side Chains on 6-Ethylcholane Scaffolds in the Identification of Potent Bile Acid Receptor Agonists with Improved Pharmacokinetic Properties” (Molecules, 2019).

The structures appear in SMILES notation. Values after ≈ are worked out from the molar mass of the structure shown.

Series [1] can be described thus: Aqueous solubility measurement (PBS pH 7.4, LC-MS). It counts as physicochemical. As to conditions: aqueous buffer, kinetic from dmso stock; aqueous solubility at pH 7.4 (PBS), 24 h room temperature. On the procedure: Chromatography was performed using an Alliance pump system coupled to a Q-ToF Premiere (Waters Co., Milford, MA, USA). The mixture was separated on a Luna 5 µm C8(2) 100° A 150 × 2 mm from Phenomenex. The mobile phase consisted of 0.2% formic acid (FA) in water as solvent A and 0.2% FA in acetonitrile as solvent B at a flow rate of 200 μL/min. The gradient was as follows: 0–2 min (70% A and 30% B), 2–20 min (5% A and 95% B), 20–30 min (70% A and 30% B). The detection of analytes was achieved by electrospray ionization (ESI) in the positive mode with the appropriate MS/MS transitions, if necessary.
Ten microliters of a 10 mM solution in DMSO of each compound was diluted either in 490 μL of PBS pH 7.4 or in organic solvent MeOH (in triplicate). The tubes were gently shaken 24 h at room temperature, then centrifuged for 5 min at 4000 rpm. 10 microliters of sample were diluted in 490 μL of MeOH. The solubility is determined by the ratio of mass signal area PBS/organic solvent.

Series [2] deals with T1, human GPBAR1 (Homo sapiens, UniProt Q8TDU6).
T1 construct: expressed in transfected cells; host or cells: HEK293T
T1 sequence (Q8TDU6 1-330): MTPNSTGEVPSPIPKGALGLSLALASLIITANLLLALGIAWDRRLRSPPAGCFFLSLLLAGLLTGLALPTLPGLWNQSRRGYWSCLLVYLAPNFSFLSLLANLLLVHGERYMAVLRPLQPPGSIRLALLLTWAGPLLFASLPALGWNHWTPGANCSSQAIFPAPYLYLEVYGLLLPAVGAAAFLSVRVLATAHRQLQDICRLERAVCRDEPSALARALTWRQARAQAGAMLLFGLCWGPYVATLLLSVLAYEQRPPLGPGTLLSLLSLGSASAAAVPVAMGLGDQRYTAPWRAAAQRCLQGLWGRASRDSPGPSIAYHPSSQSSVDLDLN
The series is described as follows: GPBAR1 transactivation (CRE luciferase reporter) assay in HEK293T cells. The class given is cell-based. On the procedure: (§1) To evaluate FXR mediated transactivation, HepG2 cells were transfected with 100 ng of human pSG5-FXR, 100 ng of human pSG5-RXR, 200 ng of the reporter vector p(hsp27)-TK-LUC containing the FXR response element IR1 cloned from the promoter of heat shock protein 27 (hsp27) and with 100 ng of pGL4.70 (Promega), a vector encoding the human Renilla gene. To evaluate GPBAR1 mediated transactivation, HEK293T cells were transfected with 200 ng of human pGL4.29 (Promega), a reporter vector containing a cAMP response element (CRE) that drives the transcription of the luciferase reporter gene luc2P, with 100 ng of pCMVSPORT6-human GPBAR1, and with 100 ng of pGL4.70. […] After treatments, 10 μL of cellular lysates were read using a Dual-Luciferase Reporter Assay System (Promega Italia srl, Milan, Italy) according manufacturer specifications using the Glomax20/20 luminometer (Promega Italia srl, Milan, Italy). Luciferase activities were assayed and normalized with Renilla activities.
(§2) At 18 h post stimulations, cellular lysates were assayed for luciferase and Renilla activities using the Dual-Luciferase Reporter Assay System (E1980, Promega Italia srl, Milan, Italy). Luminescence was measured using Glomax 20/20 luminometer (Promega Iralia srl, Milan, Italy). Luciferase activities were normalized with Renilla activities.
A general note: A reporter such as luciferase makes a cellular process visible.

The target in series [3] is T2, human FXR (Homo sapiens, UniProt Q96RI1).
T2 construct: expressed in transfected cells; host or cells: HepG2
T2 sequence (Q96RI1 1-486): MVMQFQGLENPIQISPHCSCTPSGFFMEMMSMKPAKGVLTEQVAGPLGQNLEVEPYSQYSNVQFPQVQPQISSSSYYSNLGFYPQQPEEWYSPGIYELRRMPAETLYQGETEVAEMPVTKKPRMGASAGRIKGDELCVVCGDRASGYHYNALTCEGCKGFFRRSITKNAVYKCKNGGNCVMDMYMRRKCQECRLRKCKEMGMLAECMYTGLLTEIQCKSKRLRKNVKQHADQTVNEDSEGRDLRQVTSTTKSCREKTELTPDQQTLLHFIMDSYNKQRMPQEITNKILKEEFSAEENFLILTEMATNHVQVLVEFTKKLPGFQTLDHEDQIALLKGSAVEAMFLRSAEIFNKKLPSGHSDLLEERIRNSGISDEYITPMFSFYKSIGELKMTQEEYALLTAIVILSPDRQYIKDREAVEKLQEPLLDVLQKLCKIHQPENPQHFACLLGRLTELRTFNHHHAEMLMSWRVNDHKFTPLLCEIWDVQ
T2 sequence (P19793 1-462 partner): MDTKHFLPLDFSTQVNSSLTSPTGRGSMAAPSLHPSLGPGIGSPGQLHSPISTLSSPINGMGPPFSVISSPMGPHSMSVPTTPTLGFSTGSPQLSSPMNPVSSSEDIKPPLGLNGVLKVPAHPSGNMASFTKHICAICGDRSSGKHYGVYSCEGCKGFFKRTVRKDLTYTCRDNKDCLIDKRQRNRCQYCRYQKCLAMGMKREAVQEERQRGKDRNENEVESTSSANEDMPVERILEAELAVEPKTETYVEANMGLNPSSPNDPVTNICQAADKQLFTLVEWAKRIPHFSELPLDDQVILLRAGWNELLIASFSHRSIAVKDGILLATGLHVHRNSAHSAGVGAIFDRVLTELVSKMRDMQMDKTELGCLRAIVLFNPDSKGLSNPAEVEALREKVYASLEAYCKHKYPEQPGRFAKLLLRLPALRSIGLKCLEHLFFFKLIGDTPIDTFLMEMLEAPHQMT
The series is described as follows: FXR transactivation luciferase reporter assay in HepG2 cells. The class given is cell-based. To be noted: HepG2 cells. On the procedure:
as §1, §2

With `CCC1C(O)C2C3CCC(C(C)CO)C3(C)CCC2C2(C)CCCCC12` (stereo not drawn) [compound 6, 6α-Ethyl-7α-hydroxy-23,24-dinor-5β-cholan-22-ol], the concentration in solution in series [1] (solubility at 24 h) came to 162 µM (≈ 58.7 µg/mL). Further, in series [2] (maximum efficacy of compound (10 µM) relative to 6-ECDCA (1 µM) set as 100, CRE transactivation), the “GPBAR1 Eff (%) vs 6-ECDCA” value is reported as 87.5%. For the same compound, in series [2] (maximum efficacy of compound (10 µM) relative to TLCA (10 μM) set as 100, CRE transactivation), the “GPBAR1 Eff (%) vs TLCA” value came to 19%. Besides, the concentration for a half-maximal effect (EC50) (usually the concentration that produces a half-maximal response) in series [3] (dose response 0.5 to 50 µM, 18 h) was determined as 13.7 ± 2.05 µM. Further, in series [3] (maximum efficacy of compound (10 µM) relative to 6-ECDCA (1 µM) set as 100%, FRE transactivation), the “FXR Eff (%) vs 6-ECDCA” value is given as 33.4%. Also, in series [3] (maximum efficacy of compound (10 µM) relative to CDCA (10 μM) set as 100%, FRE transactivation), the “FXR Eff (%) vs CDCA” value is reported as 185%.
